Earlier results as cited in US10624840B2, “Method for performing cosmetic surgical procedures using tumescent anesthesia and oral sedation” (priority 2017, dated 2020).

Test system: patient
Details: oral

In the case of O=C1Nc2ccc(Cl)cc2C(c2ccccc2Cl)=NC1O (stereo not shown) [Lorazepam, lorazepam], the “duration of lasting effects on a patient” value is listed as 10 to 20 h.
